According to patent US6569403B1, “Determining effects of external stimuli on the brain using PET” (Miicro, Incorporated, priority 1995, dated 2003):
Entries after “also recorded” stand apart in the source; their conditions may differ.

What was measured:
Type in all cases: in vivo
[1] = test system: healthy human subjects; test: PET with FDG: cerebral glucose metabolism (CMRglu) under behavioral clamp, drug versus placebo
[2] = test system: healthy human subjects; test: visual monitoring task (VMT): reaction time and accuracy
Text: (§1) Ninety minutes after administration of fluoxetine or placebo, subjects were repositioned in the PET scanner and a visual monitoring task (VMT) was initiated. The task assured a stable behavioral condition at the time of testing. Each subject was asked to press a button with his or her right thumb every time a dim light (50% of trials) was presented on a screen mounted in front of him or her and was asked to ignore every bright light (50%). The lights were presented under computer control at random intervals ranging from 4 to 7 sec. Each subjected completed four blocks of 96 trials each (approximately 10 min per block). Subjects also completed the Profile of Mood States (POMS) before the capsule and 20 min after injection of FDG.

[3] = test system: healthy human subjects; test: Profile of Mood States (POMS): subjective effects; conditions: fluoxetine 40 mg oral versus placebo
Text: as §1

[4] = ethanol 0.5 g/kg versus placebo (tonic water), FIG. 3
[5] = fluoxetine 40 mg oral versus placebo, voxel t-test images (FIG. 1)

SMILES	rCMglu in frontal and temporal lobes, basal ganglia and limbic system [1, 4]	rCMglu in the left hemisphere [1, 4]	accuracy on the VMT (% correct) ([2]; after fluoxetine 40 mg oral)	median reaction time on the VMT ([2]; after fluoxetine 40 mg oral, ± s.d.) [ms]	effects on reaction time or accuracy on the VMT ([2]; fluoxetine 40 mg oral versus placebo)	subjective effects as measured by the POMS [3]	relative glucose metabolism in bilateral amygdaloid complex, hippocampal formation and ventral striatum [1, 5]	relative glucose metabolism in right superior parietal lobe (Brodmann area 7) [1, 5]	Average global CMRglu ([1]; fluoxetine 40 mg oral, FDG about 90 min after dosing, four healthy subjects, mean of all slices) [mg 100 g^1 min^−1]	Average global CMRglu, fluoxetine scans versus placebo scans ([1]; fluoxetine 40 mg oral, paired two-tailed t-test)
CCO [ethanol]	affected	widespread increase								
CNCCC(Oc1ccc(C(F)(F)F)cc1)c1ccccc1 (stereo not shown) [fluoxetine]			96.4±3.2	553 ± 64	no systematic effects	no differences	decreased relative glucose metabolism; also recorded: decrease in CMRglu	increased relative metabolism; also recorded: increase in metabolism	8.22±0.86	not significantly different
